Assays:
Assay in all cases: increase in dead-cell fraction, 72 h; higher = more death;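 also: breast cancer cell lines in 384-well plates, stained with Hoechst plus LIVE/DEAD far red dye and imaged, cells above an LDR intensity threshold counted dead, Hoechst-negative corpses included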
[1] = compound: C=CC(=O)Nc1ccc(C(=O)Nc2[nH]nc3c2CN(C(=O)N[C@H](CN(C)C)c2ccccc2)C3(C)C)cc1 [YKL-5-124]
[2] = compound: CC(=O)c1c(C)c2cnc(Nc3ccc(N4CCN(CCOCCOCCOCCNC(=O)COc5cccc6c5C(=O)N(C5CCC(=O)NC5=O)C6=O)CC4)cn3)nc2n(C2CCCC2)c1=O [BSJ-03-123]
[3] = compound: CC(=O)c1c(C)c2cnc(Nc3ccc(N4CCNCC4)cn3)nc2n(C2CCCC2)c1=O
[4] = compound: CCN1CCN(Cc2ccc(Nc3ncc(F)c(-c4cc(F)c5nc(C)n(C(C)C)c5c4)n3)nc2)CC1
[5] = compound: CCOc1cc2ncc(C#N)c(Nc3ccc(OCc4ccccn4)c(Cl)c3)c2cc1NC(=O)/C=C/CN(C)C [Neratinib/HKI272]
[6] = compound: CCc1cnn2c(NCc3ccc[n+]([O-])c3)cc(N3CCCC[C@H]3CCO)nc12

UACC893
increase in dead-cell fraction ([1]; 0.001 µM): -0.0033
increase in dead-cell fraction ([1]; 0.003162 µM): 0.0007
increase in dead-cell fraction ([1]; 0.01 µM): 0.002
increase in dead-cell fraction ([1]; 0.03162 µM): 0.0043
increase in dead-cell fraction ([1]; 0.1 µM): 0.007
increase in dead-cell fraction ([1]; 0.3162 µM): 0.0024
increase in dead-cell fraction ([1]; 1 µM): -0.0001
increase in dead-cell fraction ([1]; 3.162 µM): 0.0003
increase in dead-cell fraction ([1]; 10 µM): 0.163
increase in dead-cell fraction ([2]; 0.001 µM): -0.0061
increase in dead-cell fraction ([2]; 0.003162 µM): 0.0019
increase in dead-cell fraction ([2]; 0.01 µM): 0.0038
increase in dead-cell fraction ([2]; 0.03162 µM): -0.0027
increase in dead-cell fraction ([2]; 0.1 µM): 0.0026
increase in dead-cell fraction ([2]; 0.3162 µM): 0.0022
increase in dead-cell fraction ([2]; 1 µM): 0.0012
increase in dead-cell fraction ([2]; 3.162 µM): -0.0003
increase in dead-cell fraction ([2]; 10 µM): 0.0009
increase in dead-cell fraction ([3]; 0.0003162 µM): -0.0005
increase in dead-cell fraction ([3]; 0.001 µM): 0.0008
increase in dead-cell fraction ([3]; 0.003162 µM): -0.0028
increase in dead-cell fraction ([3]; 0.01 µM): 0.0018
increase in dead-cell fraction ([3]; 0.03162 µM): 0.006
increase in dead-cell fraction ([3]; 0.1 µM): 0.0063
increase in dead-cell fraction ([3]; 0.3162 µM): 0.0087
increase in dead-cell fraction ([3]; 1 µM): 0.0064
increase in dead-cell fraction ([3]; 3.162 µM): 0.0017
increase in dead-cell fraction ([4]; 0.001 µM): -0.001
increase in dead-cell fraction ([4]; 0.003162 µM): 0.0022
increase in dead-cell fraction ([4]; 0.01 µM): 0.0063
increase in dead-cell fraction ([4]; 0.03162 µM): 0.0037
increase in dead-cell fraction ([4]; 0.1 µM): 0.0039
increase in dead-cell fraction ([4]; 0.3162 µM): 0.0024
increase in dead-cell fraction ([4]; 1 µM): 0.0009
increase in dead-cell fraction ([4]; 3.162 µM): -0.0005
increase in dead-cell fraction ([4]; 10 µM): 0.0324
increase in dead-cell fraction ([5]; 0.0003162 µM): -0.0043
increase in dead-cell fraction ([5]; 0.001 µM): -0.0037
increase in dead-cell fraction ([5]; 0.003162 µM): 0.0271
increase in dead-cell fraction ([5]; 0.01 µM): 0.0964
increase in dead-cell fraction ([5]; 0.03162 µM): 0.113
increase in dead-cell fraction ([5]; 0.1 µM): 0.187
increase in dead-cell fraction ([5]; 0.3162 µM): 0.21
increase in dead-cell fraction ([5]; 1 µM): 0.299
increase in dead-cell fraction ([5]; 3.162 µM): 0.417
increase in dead-cell fraction ([6]; 0.0001 µM): -0.0009
increase in dead-cell fraction ([6]; 0.0003162 µM): 0.0014
increase in dead-cell fraction ([6]; 0.001 µM): -0.005
increase in dead-cell fraction ([6]; 0.003162 µM): -0.0023
increase in dead-cell fraction ([6]; 0.01 µM): 0.0014
increase in dead-cell fraction ([6]; 0.03162 µM): 0.0697
increase in dead-cell fraction ([6]; 0.1 µM): 0.123
increase in dead-cell fraction ([6]; 0.3162 µM): 0.166
increase in dead-cell fraction ([6]; 1 µM): 0.169

Source: the supplement of paper PMC9663587
